Source: patent US11420962B2, “Indene derivatives useful in treating pain and inflammation” (TARO PHARMACEUTICALS INC., priority 2018, dated 2022)

How the values were obtained:
Rat DRG = test: Rat dorsal root ganglion excitability response (EFS, Ca2+ transients); format: cell-based; conditions: Rattus norvegicus; Table 3; electrical field stimulation, Ca5 indicator; read-out: Scoring (EC50, Rat DRG excitability)
Description: Dorsal root ganglions (DRGs) were dissected from adult rats. The tissue was processed, and cells were seeded into call culture plates (48 center wells of one quadrant in 384-well plates) and cultured for 2 days prior to Electrical field stimulation (EFS). To visualize the neuronal excitability response, intracellular Ca^+2 transients were monitored using the Ca^+2 indicator, Ca5. Ca5 was added to the cultures 1 h prior to EFS. Representative test compounds of the invention (i.e., test compounds) and reference compound, tetracaine, were added in concentration-response format encompassing six concentrations, performed in duplicate. The highest concentration tested was typically 30 μM with 1 in 3 dilutions generating the subsequent concentrations.
Effects on DRG excitability by the test compounds and standard were evaluated using four EFS protocols as disclosed in Table 2.
Experimental results were performed using two separate sets of plates using separate test compound and standard dilutions, to provide n=2. In the first set of experiments, compounds were added 24 h prior to EFS to increase the possibility to also detect more long-term compound effects. In the second set of experiments the compounds were added directly prior to EFS. Excitability response to EFS was analyzed as the average fluorescence ratio (peak/baseline) change per well. All plates were evaluated using high content imaging equipment post-EFS, imaging the Ca5 background staining to detect any possible compound-related toxic effects.
Average response by the standard compound, tetracaine, was 4.05 μM.

Mice (male, C57Bl/6) = test: Formalin pain assay in mice; format: in vivo; conditions: Table 7; formalin 2.5%, left plantar
Description: Mice (male, C57BL/6) were placed singly in a Perspex chamber for approximately 30 min on three successive days to acclimate and thereby reduce stress-induced behaviors. On the fourth day, the experimental animals received a 25 μl injection of 2.5% formalin beneath the left plantar skin using a 29-gauge syringe. […] The total time spent on flinches/licking/biting of the hind paw was recorded by visual observation for every 5 min period/interval for total observation duration of 60 min in two phases, the early phase (0-5 min) and the late phase (15-40 min). Observers were blinded to the treatment group allocation.
For test compounds, the % protection from 0-60 min was used to assess activity. Scoring for the test compounds was as follows: “A” represents a % protection of 81 to 100%, “B” represents a % protection of 61 to 80%, “C” represents a % protection of 31 to 60% and “D” represents a % protection of 0 to 30%.

[1] = Metabolism by human liver microsomes; format: in vitro ADME; conditions: Table 8; 10 µM, in the presence of NADPH, 1 mg/mL protein
Description: Representative compounds of the invention (i.e., test compounds) and the positive control, 7-ethoxycoumarin, were prepared as stock solutions at 10 mM in DMSO and eventually diluted to 10 μM in the test plate, with an appropriate amount of acetonitrle and tris HCl buffer. Final DMSO and acetonitrile concentrations were […] and 0.5% respectively. NADPH was prepared in tris HCl buffer to a stock of 10 mM. A frozen aliquot of live microsomes was retrieved from the freezer (−80° C.) and thawed by placing the tube on wet ice. After thawing, the tubes were gently mixed and the required amount, transferred to tris HCl buffer. Test compounds or positive control were pre-incubated, separately, for 10 minutes, with liver microsomes (1 mg/mL protein), at 37° C., in 100 mM Tris HCl at pH 7.5. After preincubation the reaction was started by adding 1 mM NADPH (pre-equilibrated to […]) and the reaction allowed to proceed for 60 minutes. At 60 minutes, a 50 μL aliquot was removed and quenched with 200 uL of acetonitrile containing a mixture of internal standards (Tolbutamide (500 ng/mL) and Telmistartan (500 ng/mL)) and vortexed then centrifuged at 4000 rmp for 10 minutes (Eppendorf 5810R). The supernatant was transferred to a 96 well plate for LC-MS/MS analysis.
An LC-MS/MS method was devised for the test compounds and the control, using a AB Sciex API 4000 system coupled to a NEXAR™ UHPLC (Shimadzu) system. Analytes were separated on a Phenomenex Kinetex C18 column (50×2.1 mm, 5 μm) using a gradient that was appropriate for each compound, at a flow rate of 1 ml/minute, utilizing a mobile phase of 0.1% formic acid in MILLI-Q™ water (A) and 0.1% formic acid in acetonitrile (B). The MS instrument was operated in positive mode (ESI+)/negative (ESI−). The multiple reaction monitoring (MRM) transition for test and control compounds was used for the LC-MS/MS analysis. MRM transitions for control compound 7-ethoxycoumarinm were Quadropole 1: 191.0, Quadropole 3: 163.0, dwell time: 75 msec, using curtain gas settings of 5 V, ion-spray voltage of 5500 V, temperature of 50° C. and gas settings for nebulizer and auxiliary set to 30 and 40 psi, respectively. The interface heater was kept on. Entrance potential and collision cell exit potential were varied to tune for a specific compound.
Using a suitable LC-MS/MS method, the percentage of drug remaining at 60 minutes ([…]) was assessed by comparing the average analyte to internal standard area ratio at 60 minutes to the average analyte to internal standard area ratio at 0 time control, as a percentage, from a 5 to 10 μL sample injection.
According to the above assay, the representative compounds listed in Table 8 below were active in the Human liver microsome assay at […] and the % of drug remaining after 60 minutes (PDR60), in the presence of NADPH, was assessed by LC-MS/MS. Average PDR60 for the standard compound, 7-ethoxycoumarin was <=65% in the presence of NADPH. Scoring for the test compounds, in the presence of NADPH, was as follows: “A” represents a PDR^60 of 81 to 100%, “B” represents a PDR^60 of 61 to 80%, “C” represents a PDR^60 of 31 to 60% and “D” represents a PDR^60 of 0 to 30%.

SMILES	EC50 (Rat DRG) [µM]	Scoring (% protection from 0-60 min) (Mice (male, C57Bl/6))	Scoring (% of drug remaining after 60 minutes, PDR60) [1]
C=C1CC[C@H]2[C@H](CN)[C@@H]([C@@]3(C)Cc4cnn(-c5ccccc5)c4C[C@@H]3CO)CC[C@]12C [Ia-8, ((5R,6S)-5-((3aS,4R,5S,7aS)-4-(aminomethyl)-7a-methyl-1-methyleneoctahydro-1H-inden-5-yl)-5-methyl-1-phenyl-4,5,6,7-tetrahydro-1H-indazol-6-yl)methanol]	2 to 6	D (a % protection of 0 to 30%)	D (a PDR^60 of 0 to 30%)
C[C@@]12CCC[C@H]1[C@H](CO)[C@@H]([C@@]1(C)Cc3cn[nH]c3C[C@@H]1CO)CC2 [Ia-27, ((3aS,4S,5S,7aS)-5-((5R,6S)-6-(hydroxymethyl)-5-methyl-4,5,6,7-tetrahydro-1H-indazol-5-yl)-7a-methyloctahydro-1H-inden-4-yl)methanol]	6 to 15	D (a % protection of 0 to 30%)	
CC[C@H]1CC[C@H]2[C@H](CN)[C@@H]([C@@]3(C)Cc4cn[nH]c4C[C@@H]3CO)CC[C@]12C [Ia-29, ((5R,6S)-5-((1S,3aS,4S,5S,7aR)-4-(aminomethyl)-1-ethyl-7a-methyloctahydro-1H-inden-5-yl)-5-methyl-4,5,6,7-tetrahydro-1H-indazol-6-yl)methanol]	6 to 15	D (a % protection of 0 to 30%)	C (a PDR^60 of 31 to 60%)
C[C@@]12CCC[C@H]1[C@H](CN)[C@@H]([C@@]1(C)Cc3cn[nH]c3C[C@@H]1CO)CC2 [Ia-33, ((5R,6S)-5-((3aS,4S,5S,7aS)-4-(aminomethyl)-7a-methyloctahydro-1H-inden-5-yl)-5-methyl-4,5,6,7-tetrahydro-1H-indazol-6-yl)methanol]	6 to 15	C (a % protection of 31 to 60%)	B (a PDR^60 of 61 to 80%)
C[C@H]1CC[C@H]2[C@H](CN)[C@@H]([C@@]3(C)Cc4cn[nH]c4C[C@@H]3CO)CC[C@]12C [Ia-34, ((5R,6S)-5-((1S,3aS,4S,5S,7aR)-4-(aminomethyl)-1,7a-dimethyloctahydro-1H-inden-5-yl)-5-methyl-4,5,6,7-tetrahydro-1H-indazol-6-yl)methanol]	6 to 15	C (a % protection of 31 to 60%)	B (a PDR^60 of 61 to 80%)
C=C1[C@@H](O)C[C@H]2[C@H](CO)[C@@H]([C@@]3(C)Cc4cn[nH]c4C[C@@H]3CO)CC[C@]12C [Ia-66, (2S,3aS,4R,5S,7aS)-4-(hydroxymethyl)-5-((5R,6S)-6-(hydroxymethyl)-5-methyl-4,5,6,7-tetrahydro-1H-indazol-5-yl)-7a-methyl-1-methyleneoctahydro-1H-inden-2-ol]	> 15	D (a % protection of 0 to 30%)	A (a PDR^60 of 81 to 100%)
C=C1CC[C@H]2[C@H](CN)[C@@H]([C@@]3(C)Cc4cc[nH]c4C[C@@H]3CO)CC[C@]12C [Id-1, ((5R,6S)-5-((3aS,4R,5S,7aS)-4-(aminomethyl)-7a-methyl-1-methyleneoctahydro-1H-inden-5-yl)-5-methyl-4,5,6,7-tetrahydro-1H-indol-6-yl)methanol]	6 to 15		C (a PDR^60 of 31 to 60%)
C=C1CC[C@H]2[C@H](CN)[C@@H]([C@@]3(C)Cc4conc4C[C@@H]3CO)CC[C@]12C [Ig-1, ((5R,6S)-5-((3aS,4R,5S,7aS)-4-(aminomethyl)-7a-methyl-1-methyleneoctahydro-1H-inden-5-yl)-5-methyl-4,5,6,7-tetrahydrobenzo[c]isoxazol-6-yl)methanol]	6 to 15	C (a % protection of 31 to 60%)	A (a PDR^60 of 81 to 100%)
